Measured values reported in PubChem BioAssay AID330 (DTP/NCI, 2004).
Values joined by “and” are separate entries in the source; they are usually repeats but may differ in a detail not shown here. Equal values may be shown once. Toxic doses and inconclusive results are not listed. Rule for the calls: active = survival T/C of 150% or more; inactive = T/C below 125% in these data.

Tested on: P388 leukemia ip, CD2F1 mice, survival T/C
Test: NCI In Vivo Anticancer Drug Screen. Data for tumor model P388 Leukemia (intraperitoneal) in CD2F1 (CDF1) mice
Conditions: endpoint: median survival time, higher = longer survival
Method in brief: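 Mice carrying the transplanted tumor received test compound or vehicle. Survival was recorded in each group, and the value is the treated-group measurement divided by that of the vehicle-treated control group.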

[1] = dose: 60.0 mg/kg/injection, schedule: Q01DX005 (ip), vehicle: Klucel (hydroxypropylcellulose) (HPC)
[2] = dose: 120.0 mg/kg/injection, schedule: Q01DX005 (ip), vehicle: Klucel (hydroxypropylcellulose) (HPC)
[3] = dose: 240.0 mg/kg/injection, schedule: Q01DX005 (ip), vehicle: Klucel (hydroxypropylcellulose) (HPC)
[4] = dose: 50.0 mg/kg/injection, schedule: Q01DX005 (ip), vehicle: Klucel (hydroxypropylcellulose) (HPC)
[5] = dose: 100.0 mg/kg/injection, schedule: Q01DX005 (ip), vehicle: Klucel (hydroxypropylcellulose) (HPC)
[6] = dose: 200.0 mg/kg/injection, schedule: Q01DX005 (ip), vehicle: Klucel (hydroxypropylcellulose) (HPC)
[7] = dose: 25.0 mg/kg/injection, schedule: Q01DX009 (ip), vehicle: saline with Tween-80
[8] = dose: 50.0 mg/kg/injection, schedule: Q01DX009 (ip), vehicle: saline with Tween-80
[9] = dose: 100.0 mg/kg/injection, schedule: Q01DX009 (ip), vehicle: saline with Tween-80
[10] = dose: 200.0 mg/kg/injection, schedule: Q01DX009 (ip), vehicle: saline with Tween-80
[11] = dose: 100.0 mg/kg/injection, schedule: Q04DX002 (ip), vehicle: saline with Tween-80
[12] = dose: 200.0 mg/kg/injection, schedule: Q04DX002 (ip), vehicle: saline with Tween-80

Measured: T/C

CCC1(N(C)C)C(=O)NC(=O)N(C)C1=O (configuration not stated)
inactive: [1] 103 % of control | [2] 101 % of control | dose: 2400.0 mg/kg/injection, schedule: Q01DX005 (ip), vehicle: Klucel (hydroxypropylcellulose) (HPC) 104 % of control

O=C(O)c1ccccc1Nc1c(C(=O)O)cnc2cc3c(cc12)OCO3
inactive: [1] 101 % of control | [2] 99 % of control | [3] 88 % of control

CCC(O)C(O)(c1ccccc1)c1nc2ccccc2s1 (configuration not stated)
inactive: [4] 102 % of control | [5] 102 % of control | [6] 99 % of control

Cc1ccc(C(=O)/C=C/c2ccccc2)cc1
inactive: dose: 12.5 mg/kg/injection, schedule: Q01DX009 (ip), vehicle: water 94 % of control | [7] 92 % of control | dose: 25.0 mg/kg/injection, schedule: Q01DX009 (ip), vehicle: water 95 % of control | [8] 108 % of control | dose: 50.0 mg/kg/injection, schedule: Q01DX009 (ip), vehicle: water 99 % of control | [9] 102 % of control | dose: 100.0 mg/kg/injection, schedule: Q01DX009 (ip), vehicle: water 104 % of control | [10] 109 % of control | dose: 200.0 mg/kg/injection, schedule: Q01DX009 (ip), vehicle: water 96 % of control

Cc1cn(O)ccc1=S
inactive: dose: 100.0 mg/kg/injection, schedule: Q04DX002 (ip), vehicle: Klucel (hydroxypropylcellulose) (HPC) 101 % of control | dose: 200.0 mg/kg/injection, schedule: Q04DX002 (ip), vehicle: Klucel (hydroxypropylcellulose) (HPC) 99 % of control | dose: 400.0 mg/kg/injection, schedule: Q04DX002 (ip), vehicle: Klucel (hydroxypropylcellulose) (HPC) 101 % of control

CN1CCCN(C)C1c1ccc(Cl)cc1
inactive: dose: 12.5 mg/kg/injection, schedule: Q01DX009 (ip), vehicle: saline sonified 90 % of control | dose: 25.0 mg/kg/injection, schedule: Q01DX009 (ip), vehicle: saline sonified 90 % of control

N=Nc1c(O)[nH]c2ccccc12
inactive: dose: 50.0 mg/kg/injection, schedule: Q01DX009 (ip), vehicle: Klucel (hydroxypropylcellulose) (HPC) 89 % of control | dose: 100.0 mg/kg/injection, schedule: Q01DX009 (ip), vehicle: Klucel (hydroxypropylcellulose) (HPC) 89 % of control | dose: 200.0 mg/kg/injection, schedule: Q01DX009 (ip), vehicle: Klucel (hydroxypropylcellulose) (HPC) 95 % of control | dose: 400.0 mg/kg/injection, schedule: Q01DX009 (ip), vehicle: Klucel (hydroxypropylcellulose) (HPC) 100 % of control

[N-]=[N+]=NC1(c2ccccc2)C(=O)c2ccccc2C1=O
inactive: dose: 100.0 mg/kg/injection, schedule: Q04DX003 (ip), vehicle: saline with Tween-80 94 % of control | dose: 200.0 mg/kg/injection, schedule: Q04DX003 (ip), vehicle: saline with Tween-80 105 % of control

CC(=O)NCC(C)C
inactive: dose: 100.0 mg/kg/injection, schedule: Q01DX001 (ip), vehicle: saline 100 % of control | dose: 200.0 mg/kg/injection, schedule: Q01DX001 (ip), vehicle: saline 100 % of control | dose: 400.0 mg/kg/injection, schedule: Q01DX001 (ip), vehicle: saline 100 % of control

CCOC(=O)CN1C=CC(=C/C(=N/S(=O)(=O)c2ccc(C)cc2)SC)C=C1
inactive: dose: 25.0 mg/kg/injection, schedule: Q04DX002 (ip), vehicle: saline with Tween-80 100 % of control | dose: 50.0 mg/kg/injection, schedule: Q04DX002 (ip), vehicle: saline with Tween-80 106 % of control | [11] 104 % of control

CCOC(=O)C(CO)NC(=O)c1cnc2ccccc2c1 (configuration not stated)
inactive: dose: 60.0 mg/kg/injection, schedule: Q01DX005 (ip), vehicle: saline with Tween-80 99 % of control | dose: 120.0 mg/kg/injection, schedule: Q01DX005 (ip), vehicle: saline with Tween-80 97 % of control

Cc1c(Cl)c2ccc(N(C)C)cc2[nH]c1=O
inactive: dose: 50.0 mg/kg/injection, schedule: Q01DX009 (ip), vehicle: acid diluted with saline 95 % of control | dose: 100.0 mg/kg/injection, schedule: Q01DX009 (ip), vehicle: acid diluted with saline 93 % of control | dose: 200.0 mg/kg/injection, schedule: Q01DX009 (ip), vehicle: acid diluted with saline 89 % of control

CCOC(=O)c1c(N=P(c2ccccc2)(c2ccccc2)c2ccccc2)n(C)c(=O)n(C)c1=O
inactive: [1] 105 % of control | [2] 99 % of control | [3] 98 % of control

CNc1nc(=O)n(-c2ccccc2)c(Cl)c1CCO
inactive: dose: 75.0 mg/kg/injection, schedule: Q01DX001 (ip), vehicle: Klucel (hydroxypropylcellulose) (HPC) 104 % of control | dose: 150.0 mg/kg/injection, schedule: Q01DX001 (ip), vehicle: Klucel (hydroxypropylcellulose) (HPC) 101 % of control | dose: 300.0 mg/kg/injection, schedule: Q01DX001 (ip), vehicle: Klucel (hydroxypropylcellulose) (HPC) 100 % of control

O=C(OCC1C=C(OC(=O)c2ccccc2)C(=O)C(OC(=O)c2ccccc2)O1)c1ccccc1 (configuration not stated)
inactive: dose: 6.25 mg/kg/injection, schedule: Q01DX009 (ip), vehicle: saline with Tween-80 98 % of control | dose: 12.5 mg/kg/injection, schedule: Q01DX009 (ip), vehicle: saline with Tween-80 94 % of control | [7] 86 % of control | [8] 89 % of control | [9] 93 % of control | [10] 102 % of control

C=C(C)C1Cc2c(ccc3c2OC2COc4cc(OC)c(OC)cc4C2C3=O)O1 (configuration not stated)
inactive: [9] 86 % of control | [10] 95 % of control | dose: 400.0 mg/kg/injection, schedule: Q01DX009 (ip), vehicle: saline with Tween-80 95 % of control

CC(C)(NC(=O)c1cc(Cl)c2ccccc2c1O)C(=O)O
inactive: dose: 50.0 mg/kg/injection, schedule: Q01DX009 (ip), vehicle: saline + alcohol 97 % of control | dose: 100.0 mg/kg/injection, schedule: Q01DX009 (ip), vehicle: saline + alcohol 94 % of control | dose: 200.0 mg/kg/injection, schedule: Q01DX009 (ip), vehicle: saline + alcohol 103 % of control

O=c1oc(-c2ccccc2)nc2c1CCCS2
inactive: [4] 100 % of control | [5] 99 % of control and 103 % of control | [6] 103 % of control and 89 % of control

CNC(C#N)C(O)c1ccccc1 (configuration not stated)
inactive: dose: 12.5 mg/kg/injection, schedule: Q01DX009 (ip), vehicle: saline 92 % of control | dose: 25.0 mg/kg/injection, schedule: Q01DX009 (ip), vehicle: saline 92 % of control | dose: 50.0 mg/kg/injection, schedule: Q01DX009 (ip), vehicle: saline 93 % of control and 97 % of control

CC1C(C)(C)P(C)(=O)C1(C)C (configuration not stated)
inactive: [11] 89 % of control | [12] 97 % of control

O=C1c2ccccc2C(=O)C1(Br)c1ccc(Cl)cc1
inactive: [11] 96 % of control | [12] 101 % of control | dose: 400.0 mg/kg/injection, schedule: Q04DX002 (ip), vehicle: saline with Tween-80 99 % of control

O=C(O)/C=C/c1c2ccc(=O)cc-2oc2cc(O)ccc12
inactive: [1] 103 % of control | [2] 103 % of control | [3] 91 % of control
